Our source for the IC50 values is patent publication US20250059171A1 (Hoffmann-La Roche Inc., priority 2021, published 2025).

Assay [1] has as its target MERS-CoV 3CLpro (Middle East respiratory syndrome-related coronavirus, UniProt K9N7C7). Briefly: biochemical.
In assay [2] the target is HCoV-229E 3CLpro (Human coronavirus 229E, UniProt P0C6X1). As to the kind of experiment: HCoV-229E 3CLpro inhibition assay (FRET). Format: biochemical.
In assay [3] the target is SARS-CoV-2 3CLpro (Severe acute respiratory syndrome coronavirus 2, UniProt P0DTD1). As to the kind of experiment: biochemical.
For assay [4], the target named is SARS-CoV 3CLpro (Severe acute respiratory syndrome coronavirus, UniProt P0C6X7). As to the kind of experiment: biochemical.

HCoV-229E 3CLpro, sequence (P0C6X1 2966-3267): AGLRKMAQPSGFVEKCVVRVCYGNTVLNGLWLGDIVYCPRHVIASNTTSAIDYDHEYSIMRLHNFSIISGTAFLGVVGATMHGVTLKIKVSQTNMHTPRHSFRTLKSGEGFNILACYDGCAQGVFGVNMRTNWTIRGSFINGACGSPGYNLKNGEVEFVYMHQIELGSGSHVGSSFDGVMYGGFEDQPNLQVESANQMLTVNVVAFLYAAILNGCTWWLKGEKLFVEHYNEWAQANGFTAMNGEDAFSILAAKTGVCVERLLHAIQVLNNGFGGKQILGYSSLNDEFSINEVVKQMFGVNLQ
MERS-CoV 3CLpro, sequence (K9N7C7 3248-3553): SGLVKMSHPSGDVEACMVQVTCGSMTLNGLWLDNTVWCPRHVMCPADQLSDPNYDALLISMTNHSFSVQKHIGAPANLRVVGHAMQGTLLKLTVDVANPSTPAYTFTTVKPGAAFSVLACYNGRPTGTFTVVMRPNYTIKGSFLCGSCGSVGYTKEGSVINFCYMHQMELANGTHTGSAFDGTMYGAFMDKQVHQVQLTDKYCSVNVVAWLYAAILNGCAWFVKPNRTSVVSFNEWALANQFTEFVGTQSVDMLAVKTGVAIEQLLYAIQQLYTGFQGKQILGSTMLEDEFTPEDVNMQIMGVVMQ

One may read the IC50 as the concentration that gives 50% inhibition. High values mean lower potency, low ones higher potency. As for `CC(C)(C)[C@H](NC(=O)C12CC(C1)C2)C(=O)N1C[C@H]2[C@@H]([C@H]1C(=O)NN(C[C@@H]1CCNC1=O)C(=O)[C@H](F)Cl)C2(C)C` [Example 15, N-[(1S)-1-[(1R,2S,5S)-2-[[[(2R)-2-chloro-2-fluoro-acetyl]-[[(3S)-2-oxopyrrolidin-3-yl]methyl]amino]carbamoyl]-6,6-dimethyl-3-azabicyclo[3.1.0]hexane-3-carbonyl]-2,2-dimethyl-propyl]bicyclo[1.1.1]pentane-1-carboxamide], the concentration for half-maximal inhibition (IC50) in assay [1] came to 204 nM; in assay [2] it was 55 nM; in assay [3], 8 nM; in assay [4], 26 nM.

As for `CC(C)(C)[C@H](NC(=O)c1cc(C(F)(F)F)on1)C(=O)N1C[C@H]2[C@@H]([C@H]1C(=O)NN(C[C@@H]1CCNC1=O)C(=O)[C@H](F)Cl)C2(C)C` [Example 16, N-[(1S)-1-[(1R,2S,5S)-2-[[[(2R)-2-chloro-2-fluoro-acetyl]-[[(3S)-2-oxopyrrolidin-3-yl]methyl]amino]carbamoyl]-6,6-dimethyl-3-azabicyclo[3.1.0]hexane-3-carbonyl]-2,2-dimethyl-propyl]-5-(trifluoromethyl)isoxazole-3-carboxamide], the IC50 in assay [1] was determined as 430 nM; in assay [2], 159 nM; in assay [3] it was 20 nM; in assay [4], 357 nM.

`CC(C)(C)[C@H](NC(=O)C(F)(F)F)C(=O)N1C[C@H]2[C@@H]([C@H]1C(=O)NN(C[C@@H]1CCNC1=O)C(=O)[C@@H](F)Cl)C2(C)C` [Example 19, N-[(1S)-1-[(1R,2S,5S)-2-[[[(2S)-2-chloro-2-fluoro-acetyl]-[[(3S)-2-oxopyrrolidin-3-yl]methyl]amino]carbamoyl]-6,6-dimethyl-3-azabicyclo[3.1.0]hexane-3-carbonyl]-2,2-dimethyl-propyl]-2,2,2-trifluoro-acetamide]: the IC50 in assay [1] came out at 92 nM; in assay [2] it was 27 nM; in assay [3], 13 nM; in assay [4], 15 nM.

For the molecule `CC1(C)[C@@H]2[C@@H](C(=O)NN(C[C@@H]3CCNC3=O)C(=O)[C@H](F)Cl)N(C(=O)[C@H](Cc3ccccc3)NC(=O)C(F)(F)F)C[C@@H]21` [Example 20, N-[(1S)-1-benzyl-2-[(1R,2S,5S)-2-[[[(2R)-2-chloro-2-fluoro-acetyl]-[[(3S)-2-oxopyrrolidin-3-yl]methyl]amino]carbamoyl]-6,6-dimethyl-3-azabicyclo[3.1.0]hexan-3-yl]-2-oxo-ethyl]-2,2,2-trifluoro-acetamide], the concentration for half-maximal inhibition (IC50) in assay [1] stood at 106 nM; in assay [2], 47 nM; in assay [3] it was 14 nM; in assay [4], 16 nM.

In the case of `CC1(C)[C@@H]2[C@@H](C(=O)NN(C[C@@H]3CCNC3=O)C(=O)[C@H](F)Cl)N(C(=O)[C@@H](NC(=O)C(F)(F)F)c3ccccc3)C[C@@H]21` [Example 21, N-[(1S)-2-[(1R,2S,5S)-2-[[[(2R)-2-chloro-2-fluoro-acetyl]-[[(3S)-2-oxopyrrolidin-3-yl]methyl]amino]carbamoyl]-6,6-dimethyl-3-azabicyclo[3.1.0]hexan-3-yl]-2-oxo-1-phenyl-ethyl]-2,2,2-trifluoro-acetamide], the IC50 in assay [1] is 109 nM; in assay [2], 34 nM; in assay [3], 25 nM; in assay [4] it was 17 nM.

In the case of `CC(C)(C)[C@H](NC(=O)C(F)(F)C(F)(F)F)C(=O)N1C[C@H]2[C@@H]([C@H]1C(=O)NN(C[C@@H]1CCNC1=O)C(=O)[C@H](F)Cl)C2(C)C` [Example 22, N-[(1S)-1-[(1R,2S,5S)-2-[[[(2R)-2-chloro-2-fluoro-acetyl]-[[(3S)-2-oxopyrrolidin-3-yl]methyl]amino]carbamoyl]-6,6-dimethyl-3-azabicyclo[3.1.0]hexane-3-carbonyl]-2,2-dimethyl-propyl]-2,2,3,3,3-pentafluoro-propanamide], the IC50 in assay [1] is 183 nM; in assay [2], 76 nM; in assay [3], 8 nM; in assay [4] it was 31 nM.

`CC(C)(C)[C@H](NC(=O)C(F)(F)F)C(=O)N1C[C@H](C(F)(F)F)C[C@H]1C(=O)NN(C[C@@H]1CCNC1=O)C(=O)[C@H](F)Cl` [Example 23, N-[(1S)-1-[(2S,4R)-2-[[[(2R)-2-chloro-2-fluoro-acetyl]-[[(3S)-2-oxopyrrolidin-3-yl]methyl]amino]carbamoyl]-4-(trifluoromethyl)pyrrolidine-1-carbonyl]-2,2-dimethyl-propyl]-2,2,2-trifluoro-acetamide]: the concentration for half-maximal inhibition (IC50) is 65 nM in assay [1], 21 nM in assay [2], 9 nM in assay [3] and 11 nM in assay [4].

Consider `CC1([C@H](NC(=O)C(F)(F)F)C(=O)N2CC3(CC3)C[C@H]2C(=O)NN(C[C@@H]2CCNC2=O)C(=O)[C@H](F)Cl)CC1` [Example 24, N-[(1S)-2-[(6S)-6-[[[(2R)-2-chloro-2-fluoro-acetyl]-[[(3S)-2-oxopyrrolidin-3-yl]methyl]amino]carbamoyl]-5-azaspiro[2.4]heptan-5-yl]-1-(1-methylcyclopropyl)-2-oxo-ethyl]-2,2,2-trifluoro-acetamide], for which the IC50 worked out at 114 nM in assay [1], 31 nM in assay [2], 18 nM in assay [3] and 13 nM in assay [4].

Regarding `CC(C)C(=O)N[C@H](C(=O)N1CC2(CC2)C[C@H]1C(=O)NN(C[C@@H]1CCNC1=O)C(=O)[C@H](F)Cl)C(C)(C)C` [Example 25, N-[(1S)-1-[(6S)-6-[[[(2R)-2-chloro-2-fluoro-acetyl]-[[(3S)-2-oxopyrrolidin-3-yl]methyl]amino]carbamoyl]-5-azaspiro[2.4]heptane-5-carbonyl]-2,2-dimethyl-propyl]-2-methyl-propanamide], the IC50 was 408 nM in assay [1], 127 nM in assay [2], 15 nM in assay [3] and 27 nM in assay [4].

With `CC1(C)C[C@@H](C(=O)NN(C[C@@H]2CCNC2=O)C(=O)[C@H](F)Cl)N(C(=O)[C@@H](NC(=O)C2CC2)C(C)(C)C)C1` [Example 26, N-[(1S)-1-[(2S)-2-[[[(2R)-2-chloro-2-fluoro-acetyl]-[[(3S)-2-oxopyrrolidin-3-yl]methyl]amino]carbamoyl]-4,4-dimethyl-pyrrolidine-1-carbonyl]-2,2-dimethyl-propyl]cyclopropanecarboxamide], the IC50 is 98 nM in assay [1], 28 nM in assay [2], 12 nM in assay [3] and 21 nM in assay [4].

`C[C@H]1C[C@@H](C(=O)NN(C[C@@H]2CCNC2=O)C(=O)[C@H](F)Cl)N(C(=O)[C@@H](NC(=O)C(F)(F)F)C(C)(C)C)C1` [Example 27, N-[(1S)-1-[(2S,4S)-2-[[[(2R)-2-chloro-2-fluoro-acetyl]-[[(3S)-2-oxopyrrolidin-3-yl]methyl]amino]carbamoyl]-4-methyl-pyrrolidine-1-carbonyl]-2,2-dimethyl-propyl]-2,2,2-trifluoro-acetamide]: the IC50 in assay [1] turned out to be 136 nM; in assay [2], 29 nM; in assay [3], 29 nM; in assay [4] it was 20 nM.

`CC(C)(C)[C@H](NC(=O)C(F)F)C(=O)N1C[C@@H]2CCC[C@@H]2[C@H]1C(=O)NN(C[C@@H]1CCNC1=O)C(=O)[C@H](F)Cl` [Example 28, N-[(1S)-1-[(3S,3aS,6aR)-3-[[[(2R)-2-chloro-2-fluoro-acetyl]-[[(3S)-2-oxopyrrolidin-3-yl]methyl]amino]carbamoyl]-3,3a,4,5,6,6a-hexahydro-1H-cyclopenta[c]pyrrole-2-carbonyl]-2,2-dimethyl-propyl]-2,2-difluoro-acetamide]: the IC50 in assay [1] came to 1020 nM; in assay [2], 396 nM; in assay [3] it was 8 nM; in assay [4], 38 nM.

With `CC(=O)N[C@H](C(=O)N1C[C@@H]2CCC[C@@H]2[C@H]1C(=O)NN(C[C@@H]1CCNC1=O)C(=O)[C@H](F)Cl)C(C)(C)C` [Example 29, N-[(1S)-1-[(3S,3aS,6aR)-3-[[[(2R)-2-chloro-2-fluoro-acetyl]-[[(3S)-2-oxopyrrolidin-3-yl]methyl]amino]carbamoyl]-3,3a,4,5,6,6a-hexahydro-1H-cyclopenta[c]pyrrole-2-carbonyl]-2,2-dimethyl-propyl]acetamide], the IC50 is 68 nM in assay [1], 28 nM in assay [2], 10 nM in assay [3] and 11 nM in assay [4].

In the case of `CC(F)(F)C(=O)N[C@H](C(=O)N1C[C@@H]2CCC[C@@H]2[C@H]1C(=O)NN(C[C@@H]1CCNC1=O)C(=O)[C@H](F)Cl)C(C)(C)C` [Example 30, N-[(1S)-1-[(3S,3aS,6aR)-3-[[[(2R)-2-chloro-2-fluoro-acetyl]-[[(3S)-2-oxopyrrolidin-3-yl]methyl]amino]carbamoyl]-3,3a,4,5,6,6a-hexahydro-1H-cyclopenta[c]pyrrole-2-carbonyl]-2,2-dimethyl-propyl]-2,2-difluoro-propanamide], the IC50 in assay [1] stood at 143 nM; in assay [2] it was 49 nM; in assay [3], 8 nM; in assay [4], 15 nM.

`CC(C)(C)[C@H](NC(=O)C1CC1)C(=O)N1C[C@@H]2CCC[C@@H]2[C@H]1C(=O)NN(C[C@@H]1CCNC1=O)C(=O)[C@H](F)Cl` [Example 31, N-[(1S)-1-[(3S,3aS,6aR)-3-[[[(2R)-2-chloro-2-fluoro-acetyl]-[[(3S)-2-oxopyrrolidin-3-yl]methyl]amino]carbamoyl]-3,3a,4,5,6,6a-hexahydro-1H-cyclopenta[c]pyrrole-2-carbonyl]-2,2-dimethyl-propyl]cyclopropanecarboxamide]: the IC50 in assay [1] was determined as 76 nM; in assay [2] it was 28 nM; in assay [3], 8 nM; in assay [4], 12 nM.
